# Measurements: ChEMBL document CHEMBL1697723, “A predictive ligand-based Bayesian model for human drug-induced liver injury” (Drug Metab Dispos, 2010)
# Tested on: Hepatotoxicity
# Experiment: Human drug-induced liver injury (DILI) modelling dataset from Ekins et al
# Details: not given
row,SMILES,Hepatotoxicity
1,CCCCC1=NC2(CCCC2)C(=O)N1Cc1ccc(-c2ccccc2-c2nnn[nH]2)cc1 [IRBESARTAN],DILI negative (test set)
2,CCCCC(=O)N(Cc1ccc(-c2ccccc2-c2nnn[nH]2)cc1)[C@H](C(=O)O)C(C)C,DILI negative (test set)
3,NC(CO)(CO)CO.O=C(c1ccccc1)c1ccc2n1CCC2C(=O)O (configuration not stated) [KETOROLAC TROMETHAMINE],DILI positive (training set)
4,COc1ccc2[nH]cc(CCNC(C)=O)c2c1 [MELATONIN],DILI negative (training set)
5,C#CCN(C)Cc1ccccc1 [PARGYLINE],DILI negative (test set)
6,CN(C)C(=O)Oc1ccc[n+](C)c1.[Br-] [PYRIDOSTIGMINE BROMIDE],DILI negative (training set)
7,ClC=C(Cl)Cl [TRICHLOROETHYLENE],DILI positive (test set)
8,O=c1[nH]cnc2c1ncn2[C@H]1CC[C@@H](CO)O1 [DIDANOSINE],DILI positive (training set)
9,Cc1cn([C@H]2C[C@H](N=[N+]=[N-])[C@@H](CO)O2)c(=O)[nH]c1=O [ZIDOVUDINE],DILI positive (training set)
10,O=C1CN(/N=C/c2ccc(-c3ccc([N+](=O)[O-])cc3)o2)C(=O)[N-]1.[Na+] [DANTROLENE SODIUM],DILI positive (training set)
11,CC[C@H]1OC(=O)[C@H](C)[C@@H](O[C@H]2C[C@@](C)(OC)[C@@H](O)[C@H](C)O2)[C@H](C)[C@@H](O[C@@H]2O[C@H](C)C[C@H](N(C)C)[C@H]2O)[C@](C)(O)C[C@@H](C)C(=O)[C@H](C)[C@@H](O)[C@]1(C)O [ERYTHROMYCIN],DILI negative (training set)
12,Cc1ccc(Nc2c(F)cccc2Cl)c(CC(=O)O)c1 [LUMIRACOXIB],DILI positive (test set)
13,COc1cc(NS(C)(=O)=O)ccc1Nc1c2ccccc2nc2ccccc12.Cl [AMSACRINE HYDROCHLORIDE],DILI positive (training set)
14,C[C@@H]1C[C@H]2[C@@H]3CCC4=CC(=O)C=C[C@]4(C)[C@@]3(Cl)[C@@H](O)C[C@]2(C)[C@@]1(OC(=O)c1ccco1)C(=O)CCl [MOMETASONE FUROATE],DILI negative (test set)
15,CCCCc1ncc(/C=C(\Cc2cccs2)C(=O)O)n1Cc1ccc(C(=O)O)cc1 [EPROSARTAN],DILI negative (test set)
16,O=C1NCN(c2ccccc2)C12CCN(CCCC(c1ccc(F)cc1)c1ccc(F)cc1)CC2,DILI positive (test set)
17,CC(C)(CO)[C@@H](O)C(=O)NCCC(=O)[O-].CC(C)(CO)[C@@H](O)C(=O)NCCC(=O)[O-].[Ca+2] [CALCIUM PANTOTHENATE],DILI negative (training set)
18,COC(=O)C1=C(C)NC(C)=C(C(=O)OCCN(C)Cc2ccccc2)C1c1cccc([N+](=O)[O-])c1.Cl (configuration not stated) [NICARDIPINE HYDROCHLORIDE],DILI positive (training set)
19,C[C@H](O)C(=O)Nc1c(I)c(C(=O)NC(CO)CO)c(I)c(C(=O)NC(CO)CO)c1I [IOPAMIDOL],DILI positive (test set)
20,Nc1ncnc2c1ncn2[C@@H]1O[C@H](CO)[C@@H](O)[C@@H]1O [VIDARABINE],DILI negative (training set)

row,SMILES,Hepatotoxicity
1,Nc1nc(Cl)nc2c1ncn2[C@H]1C[C@H](O)[C@@H](CO)O1 [CLADRIBINE],DILI negative (training set)
2,C[C@@H]1C[C@H]2[C@@H]3CCC4=CC(=O)C=C[C@]4(C)[C@@]3(F)[C@@H](O)C[C@]2(C)[C@@]1(O)C(=O)CO [DEXAMETHASONE],DILI negative (training set)
3,C[C@H]1O[C@@H](O[C@H]2[C@@H](O)C[C@H](O[C@H]3[C@@H](O)C[C@H](O[C@H]4CC[C@@]5(C)[C@H](CC[C@@H]6[C@@H]5C[C@@H](O)[C@]5(C)[C@@H](C7=CC(=O)OC7)CC[C@]65O)C4)O[C@@H]3C)O[C@@H]2C)C[C@H](O)[C@@H]1O [DIGOXIN],DILI negative (training set)
4,C[C@]12CC[C@@H]3c4ccc(O)cc4CC[C@H]3[C@@H]1CCC2=O [ESTRONE],DILI positive (training set)
5,C[C@](N)(Cc1ccc(O)c(O)c1)C(=O)O [METHYLDOPA],DILI positive (test set)
6,Oc1c(Cl)cc(Cl)cc1Sc1cc(Cl)cc(Cl)c1O [BITHIONOL],DILI positive (test set)
7,O=C1C(CC[S+]([O-])c2ccccc2)C(=O)N(c2ccccc2)N1c1ccccc1 (configuration not stated) [SULFINPYRAZONE],DILI positive (test set)
8,CC(C)Cc1ccc(C(C)C(=O)O)cc1 (configuration not stated) [IBUPROFEN],DILI negative (test set)
9,CCc1oc2ccccc2c1C(=O)c1cc(Br)c(O)c(Br)c1 [BENZBROMARONE],DILI positive (training set)
10,C[C@@](Cc1ccc(O)c(O)c1)(NN)C(=O)O.O [CARBIDOPA],DILI negative (training set)
11,Cc1ccc(-c2nc3ccc(C)cn3c2CC(=O)N(C)C)cc1 [ZOLPIDEM],DILI negative (test set)
12,CC(C)C(=O)Nc1ccc([N+](=O)[O-])c(C(F)(F)F)c1 [FLUTAMIDE],DILI positive (training set)
13,CN1CCC[C@@H]1CCO[C@](C)(c1ccccc1)c1ccc(Cl)cc1.O=C(O)/C=C/C(=O)O [CLEMASTINE FUMARATE],DILI negative (test set)
14,CC[C@@H](CO)NC(=O)[C@@H]1C=C2c3cccc4[nH]cc(c34)C[C@H]2N(C)C1.O=C(O)/C=C\C(=O)O [METHYLERGONOVINE MALEATE],DILI negative (training set)
15,CNCC[C@@H](Oc1ccccc1C)c1ccccc1 [ATOMOXETINE],DILI positive (test set)
16,NC(=O)N1c2ccccc2C=Cc2ccccc21 [CARBAMAZEPINE],DILI positive (test set)
17,Cc1ccc(C(=O)c2ccc(CC(=O)O)n2C)cc1 [TOLMETIN],DILI positive (training set)
18,C[C@H]1C(=O)O[C@@H]2CCN3CC=C(COC(=O)[C@](C)(O)[C@]1(C)O)[C@H]23 [MONOCROTALINE],DILI positive (training set)
19,CS(=O)(=O)OCCOS(C)(=O)=O [ETHANE DIMETHANE SULFONATE],DILI positive (test set)

# Same assay, conditions: Liver
row,SMILES,Hepatotoxicity
1,CC(C)NCC(O)c1ccc(O)c(O)c1.Cl (configuration not stated) [ISOPROTERENOL HYDROCHLORIDE],DILI negative (training set)
2,CNCCC=C1c2ccccc2CCc2ccccc21.Cl [NORTRIPTYLINE HYDROCHLORIDE],DILI positive (training set)
3,O=S(=O)(O)O.Oc1cccc2cccnc12.Oc1cccc2cccnc12 [OXYQUINOLINE SULFATE],DILI positive (test set)
4,Nc1ncn([C@@H]2O[C@H](CO)[C@@H](O)[C@H]2O)c(=O)n1 [AZACITIDINE],DILI positive (test set)
5,CN1CCCCC1CCN1c2ccccc2Sc2ccc([S+](C)[O-])cc21.O=S(=O)(O)c1ccccc1 (configuration not stated) [MESORIDAZINE BESYLATE],DILI positive (training set)
6,Cc1ccc(C(=O)c2cc(O)c(O)c([N+](=O)[O-])c2)cc1 [TOLCAPONE],DILI positive (test set)
7,[H]/N=C(/N)N[C@H]1[C@H](O)[C@@H](O)[C@H](O[C@@H]2O[C@@H](C)[C@](O)(C=O)[C@H]2O[C@@H]2O[C@@H](CO)[C@H](O)[C@@H](O)[C@@H]2NC)[C@@H](N/C(N)=N\[H])[C@@H]1O [STREPTOMYCIN],DILI negative (test set)
8,CC(C)(C(=O)O)c1ccc(C(O)CCCN2CCC(C(O)(c3ccccc3)c3ccccc3)CC2)cc1 (configuration not stated) [FEXOFENADINE],DILI negative (test set)
